Experimental data: ChEMBL document CHEMBL3421531, “Synthesis, and structure-activity relationship for C(4) and/or C(5) thienyl substituted pyrimidines, as a new family of antimycobacterial compounds” (Eur J Med Chem, 2015)
Converted amounts (≈) assume the structure as drawn.

The molecules below were run on Mycobacterium tuberculosis (assay: Antimycobacterial activity against rifampin,isoniazid-resistant Mycobacterium tuberculosis expressing rpoB/katG mutant after 10 days by microbroth dilution method).
Format: functional
Brc1cncnc1 showed an MIC of 78.62 µM (≈ 12.5 µg/mL). In the case of c1csc(-c2ccc(-c3ncncc3-c3ccsc3)s2)c1, the MIC is reported as 19.14 µM (≈ 6.25 µg/mL). c1csc(-c2ncncc2-c2ccsc2)c1 showed an MIC of 25.58 µM (≈ 6.25 µg/mL). Molecule c1csc(-c2ncncc2-c2cc3ccccc3s2)c1 has an MIC of 21.23 µM (≈ 6.25 µg/mL). For c1csc(-c2ccc(-c3cncnc3)s2)c1, the MIC was 25.58 µM (≈ 6.25 µg/mL). For c1ccc(-c2ccc(-c3cncnc3)s2)cc1, the MIC was 26.23 µM (≈ 6.25 µg/mL). Molecule c1ccc(-c2ccc(-c3ncncc3-c3csc4ccccc34)s2)cc1 has an MIC of 0.4 µM (≈ 0.148 µg/mL). c1csc(-c2cncnc2)c1 showed an MIC of 38.53 µM (≈ 6.25 µg/mL). For c1ccc(-c2ccc(-c3ncncc3-c3cc4ccccc4s3)s2)cc1, the MIC was 8.37 µM (≈ 3.1 µg/mL). Work on c1ccc(-c2ccc(-c3ncncc3-c3cccs3)s2)cc1 yielded an MIC of 39.01 µM (≈ 12.5 µg/mL). In the case of c1csc(-c2ccc(-c3ncncc3-c3cccs3)s2)c1, the MIC is reported as 2.14 µM (≈ 0.699 µg/mL). For c1csc(-c2ccc(-c3ncncc3-c3cc4ccccc4s3)s2)c1, the MIC was 33.2 µM (≈ 12.5 µg/mL). With Brc1ccc(-c2ncncc2-c2cccs2)s1 the MIC was 38.67 µM (≈ 12.5 µg/mL). Brc1ccc(-c2ncncc2Br)s1 was tested, and the MIC was 9.69 µM (≈ 3.1 µg/mL). Brc1ccc(-c2cncnc2)s1 gave an MIC of 51.84 µM (≈ 12.5 µg/mL). With Brc1ccc(-c2ncncc2-c2ccsc2)s1 the MIC was 19.34 µM (≈ 6.25 µg/mL). c1csc(-c2ccc(-c3ccncn3)s2)c1 gave an MIC of 51.16 µM (≈ 12.5 µg/mL). With c1ccc(-c2ccc(-c3ncncc3-c3ccsc3)s2)cc1 the MIC was 19.5 µM (≈ 6.25 µg/mL). c1csc(-c2ncncc2-c2csc3ccccc23)c1 was tested, and the MIC was 42.46 µM (≈ 12.5 µg/mL). In the case of c1ccc2sc(-c3cncnc3)cc2c1, the MIC is reported as 58.89 µM (≈ 12.5 µg/mL). In the case of Brc1ccc(-c2ncncc2-c2csc3ccccc23)s1, the MIC is reported as 8.3 µM (≈ 3.1 µg/mL). For c1ccc2c(-c3cncnc3)csc2c1, the MIC was 7.07 µM (≈ 1.5 µg/mL). Brc1ccc(-c2ncncc2-c2cc3ccccc3s2)s1 gave an MIC of 33.49 µM (≈ 12.5 µg/mL). For c1ncc(-c2ccsc2)cn1, the MIC was 77.06 µM (≈ 12.5 µg/mL). c1csc(-c2cncnc2-c2cccs2)c1 gave an MIC of 12.69 µM (≈ 3.1 µg/mL). c1csc(-c2ccc(-c3ncncc3-c3csc4ccccc34)s2)c1 gave an MIC of 0.98 µM (≈ 0.369 µg/mL).
